{"source": "patent US20090075926A1", "about": "“METHOD FOR IDENTIFYING AND MANIPULATING CELLS” (priority 2006, published 2009)", "molecules": {"B1": {"name": "NM23-H3: recombinant NM23-H3 protein (protein, UniProt Q13232 1-169, looked up)", "Nucleoside diphosphate kinase …": "MICLVLTIFANLFPAACTGAHERTFLAVKPDGVQRRLVGEIVRRFERKGFKLVALKLVQASEELLREHYAELRERPFYGRLVKYMASGPVVAMVWQGLDVVRTSRALIGATNPADAPPGTIRGDFCIEVGKNLIHGSDSVESARREIALWFRADELLCWEDSAGHWLYE"}, "B2": {"name": "G-CSF: granulocyte colony stimulating factor (protein, UniProt P09919 31-207, looked up)", "Granulocyte …": "TPLGPASSLPQSFLLKCLEQVRKIQGDGAALQEKLVSECATYKLCHPEELVLLGHSLGIPWAPLSSCPSQALQLAGCLSQLHSGLFLYQGLLQALEGISPELGPTLDTLQLDVADFATTIWQQMEELGMAPALQPTQGAMPAFASAFQRRAGGVLVASHLQSFLEVSYRVLRHLAQP"}, "B3": {"name": "NM23-H2: recombinant NM23-H2 protein (protein, UniProt P22392 1-152, looked up)", "Nucleoside diphosphate kinase …": "MANLERTFIAIKPDGVQRGLVGEIIKRFEQKGFRLVAMKFLRASEEHLKQHYIDLKDRPFFPGLVKYMNSGPVVAMVWEGLNVVKTGRVMLGETNPADSKPGTIRGDFCIQVGRNIIHGSDSVKSAEKEISLWFKPEELVDYKSCAHDWVYE"}}, "key": {"[1]": {"tested_on": "ERK2 phosphorylation (MAP kinase pathway) via PSMGFR region of MUC1", "assay": "western blot of ERK2 phosphorylation upon MUC1* dimerization and small molecule competition", "type": "cell-based", "conditions": "competitor small molecule present with anti-PSMGFR", "description": "FIG. 6 is a western blot of a competition experiment in which small molecules that bind to the PSMGFR region of MUC1 compete with anti-PSMGFR for binding to the site. […] The chemical formula for the competitor compound MN 9 referred to in this figure is\nThe western blot probe antibody is phospho-ERK2. FIG. 6 is a western blot of a competition experiment in which small molecules that bind to the PSMGFR region of MUC1 compete with anti-PSMGFR for binding to the site."}, "[2]": {"tested_on": "H9 human embryonic stem cells", "assay": "human embryonic stem cell growth / live-dead assay on matrigel", "type": "cell-based", "conditions": "for live stem cells when free peptide is added to monovalent anti-MUC1*: monovalent anti-MUC1* plus free MUC1* peptide vs no peptide", "description": "The details are that H9 low passage number hESCs were grown over matrigel for 7 days. To one set of wells was added bivalent anti-PSMGFR; to a second set was added the monovalent anti-PSMGFR; and to a third set buffer was added as a control. The results were that the addition of monovalent anti-PSMGFR caused stem cells to die within 8 hours. Cells immediately rounded up and within hours floated to the top of the media. […] Colonies were larger and in general had less differentiated cells.\nBased on the findings that MUC1* mediates growth in cancer cells, experiments were devised to show whether or not stem cell growth could be manipulated by altering the dimerization state of MUC1*. A set number of human embryonic stem cells, H9p55, were plated onto matrigel. Cells were treated with either: 1) the bivalent anti-MUC1* antibody (rabbit polyclonal antibody raised the PSMGFR sequence), which dimerizes the MUC1* portion of the receptor; 2) the monovalent form of this same antibody, which binds to a single MUC1* receptor and prevents dimerization; or 3) nothing added as a control. The most striking result was that nearly all the cells, to which the monovalent anti-MUC1* antibody was added, died within 8 hours of the treatment, see FIGS. 25 and 26. […] A complete reversal of the monovalent antibody induced cell death was not expected since the free peptide could also compete with the cell surface MUC1* receptor for binding to the activating ligand. […] Therefore, the experiment was repeated but the analysis was done in a manner that resultant cell numbers could be quantitated.\nA given number of cells H9p55 were added to each well. Again, the cells were treated with either bivalent anti-MUC1*, monovalent anti-MUC1* or no antibody as a control and then counted on a cell counting instrument. The graph of FIG. 32 summarizes the results. Again, treatment with the monovalent anti-MUC1* antibody caused cell death within 8 hours. […] The graph of FIG. 33 gives the details of this experiment. […]"}, "HEL cells": {"tested_on": "HEL cells", "conditions": "recombinant human protein as GST fusion; cited from earlier work"}, "[3]": {"tested_on": "hematopoietic stem cells (CD34++CD38−)", "conditions": "recombinant protein added; cited from earlier work"}, "[4]": {"tested_on": "hematopoietic progenitor cells (CD34+CD38+)", "conditions": "recombinant protein added; cited from earlier work"}, "PSMGFR (MUC1*) peptide": {"biological_target": "T1, PSMGFR (MUC1*) peptide (Homo sapiens, UniProt P15941)", "T1 sequence (P15941 1110-1154 limits assumed)": "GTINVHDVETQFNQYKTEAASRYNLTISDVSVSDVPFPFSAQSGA", "assay": "immunoprecipitation with histidine-tagged PSMGFR (MUC1*) peptide and western blot with anti-NM23", "type": "binding", "conditions": "T47D cancer cell extracts", "description": "NM23 is the ligand that dimerizes and activates the MUC1* growth factor receptor. T47D cancer cell extracts were immunoprecipitated with magnetic beads that were pre-bound with histidine-tagged PSMGFR (MUC1*) peptide. The captured MUC1* binding species were then separated by SDS-PAGE. A western blot was then performed by probing the gel with an antibody that recognized NM23 H1."}, "[5]": {"tested_on": "MUC1*-positive cancer cells", "assay": "growth of MUC1*-positive cancer cells with NM23", "type": "cell-based"}, "shed MUC1": {"tested_on": "shed MUC1", "conditions": "breast cancer patients; cited from earlier work"}}, "data": [{"molecule": "O=C(c1ccc2ccccc2c1)N1CCc2c([nH]c3ccccc23)C1c1ccc(C(F)(F)F)cc1", "note": "(stereo not drawn) [Compound MN 9]", "values": [{"measurement": "ERK2 phosphorylation in competition with anti-PSMGFR", "setting": "[1]", "result": "ERK2 phosphorylation is inhibited"}]}, {"molecule": "MUC1* peptide: free peptide of the MUC1* (PSMGFR) extracellular sequence, competes with cell surface MUC1* (GTINVHDVETQFNQYKTEAASRYNLTISDVSVSDVPFPFSAQSGA; Fragment of MUC1 Growth Factor Receptor)", "values": [{"measurement": "stem cell count on addition of MUC1* peptide", "setting": "[2]; bFGF added, with or without bivalent anti-MUC1*", "result": "drop in the cell count"}, {"measurement": "live stem cells when free peptide is added to monovalent anti-MUC1*", "setting": "[2]", "result": "more live cells"}, {"measurement": "live stem cells when free peptide is added to monovalent anti-MUC1*", "setting": "[2]; listed as MUC1* free peptide", "result": "increase in the number of live cells"}]}, {"molecule": "NM23-H1: recombinant NM23-H1 protein", "values": [{"measurement": "erythroid differentiation of HEL cells by TGF-β1", "setting": "HEL cells", "result": "block erythroid differentiation"}, {"measurement": "growth of hematopoietic stem cells", "setting": "[3]", "result": "did not induce growth"}, {"measurement": "differentiation into granulocyte, macrophage, or granulocyte-macrophage colonies", "setting": "[4]", "result": "reduced the differentiation"}]}, {"molecule": "NM23: natural ligand that dimerizes and activates the MUC1* growth factor receptor", "values": [{"measurement": "binding to MUC1* peptide (immunoprecipitated species reacts with anti-NM23)", "setting": "PSMGFR (MUC1*) peptide", "result": "ligand to MUC1"}, {"measurement": "growth of MUC1*-positive cancer cells", "setting": "[5]", "result": "stimulate the growth"}]}, {"molecule": "B1", "values": [{"measurement": "growth of hematopoietic stem cells", "setting": "[3]", "result": "did not induce growth"}, {"measurement": "differentiation into granulocyte, macrophage, or granulocyte-macrophage colonies", "setting": "[4]", "result": "reduced the differentiation"}]}, {"molecule": "B2", "values": [{"measurement": "serum levels of shed MUC1", "setting": "shed MUC1", "result": "greatly increased"}]}, {"molecule": "B3", "values": [{"measurement": "erythroid differentiation of HEL cells by TGF-β1", "setting": "HEL cells", "result": "block erythroid differentiation"}, {"measurement": "growth of hematopoietic stem cells", "setting": "[3]", "result": "did not induce growth"}, {"measurement": "differentiation into granulocyte, macrophage, or granulocyte-macrophage colonies", "setting": "[4]", "result": "reduced the differentiation"}]}]}
